# Entries after “also recorded” stand apart in the source; their conditions may differ.
# Columns and labels:
# [1] = system: hCS-hSpS-hSkM assembloids; experiment: Optogenetic stimulation of hCS in hCS-hSpS-hSkM assembloids, muscle displacement; assay type: cell-based, human; settings: NBQX (50 μM) and APV (50 μM) added together; Chrim-expressing hCS, 625 nm
# From the text: Glutamate uncaging and optogenetic stimulation.
# Contraction analysis. […] The mean covariance per field was plotted.
# hSpS [2] = experiment: Single-cell gene expression of hSpS with or without DAPT (BD Rhapsody); assay type: cell-based, human; settings: hSpS differentiated in the presence of DAPT (2.5 μM, days 19, 21, 23) versus hSpS(−)DAPT; day 45
# Experimental: To generate hSpS, hiPS cell medium was supplemented with dual SMAD inhibitors until day 5 and the WNT activator CHIR 99021 (3 μM, Selleckchem) from day 4 to day 18. On day 6, spheroids were transferred to neural medium supplemented with RA (0.1 μM, Sigma-Aldrich), EGF (20 ng ml-1; R&D Systems) and FGF-2 (10 ng ml-1; R&D Systems), with addition of the SHH modulator smoothened agonist (SAG, 0.1 μM, Millipore) from day 11. From day 7, the medium was changed every other day. […] For hSpS, the Notch inhibitor DAPT (2.5 μM, STEMCELL technologies) was added on days 19, 21 and 23. From day 43 onwards, the medium was changed every four to five days.
# Single-cell gene expression (BD Rhapsody system). […] Cell labels and molecular indices were identified, and gene identity was determined by alignment against the gencode comprehensive hg19 reference. […] Gene expression profiles of 4,175 and 3,173 cells were recovered for hSpS with or without DAPT, respectively, with an average number of reads of ˜17,000, ˜2,400 molecules and ˜1,400 number of genes detected per cell with average molecular index coverage (that is, the number of times a molecule was sequenced) of 4.8. […]
# hSC [3] = experiment: Immunocytochemistry of hSC cytoarchitecture; assay type: cell-based, human; settings: DAPT+ hSC condition; day 45
# Experimental: (§1) From day 4 in suspension, cultures were supplemented with the GSK-3 inhibitor CHIR 99021 (3 μM). On day 6, spheroids were transferred to neural medium containing neurobasal-A, B-27 supplement without vitamin A, GlutaMax (1:100), penicillin and streptomycin, and supplemented with retinoic acid (RA, 100 nM), EGF (20 ng/ml) and FGF-2 (10 ng/ml). On day 11 of differentiation spheroids were supplemented with the SHH pathway agonist Smoothened Agonist (SAG, 100 nM), in addition to the compounds described above. From day 7 onwards, media was changed every other day. For the hSC+D condition, spheroids received the gamma-secretase inhibitor DAPT (2.5 μM) on days 19, 21 and 23. From day 19, once the initial fate specification stage is finalized, hSCs were transferred to neural medium containing neurobasal-A, B-27 supplement without vitamin A, N−2 supplement, GlutaMax (1:100), penicillin and streptomycin (1:100), and supplemented with BDNF (20 ng/ml), IGF (10 ng/ml), L-Ascorbic Acid (AA, 200 nM) and cAMP (62.5 nM).
# hSC [4] = experiment: Gene expression analysis (qPCR) of neuronal subtype markers in hSC or hSC+D; assay type: cell-based, human; settings: DAPT+ condition (2.5 μM) versus hSC; day 30
# Experimental: as §1
# hSpS-hSkM assembloids = settings: 405 nm, in the presence of MNI-caged glutamate (3.3 mM)
# Experimental: (§2) Generation of hSpS-hSkM or hCS-hSpS-hSkM assembloids. To generate neural-muscle assembloids, 3D hSkM that had been in differentiation medium for at least 10 days (see above) were removed from the silicone wells and placed on top of cell culture inserts (0.4 μm pore size; 353090, Corning) that were positioned in 6-well plates containing 2 ml of DMEM/F12 medium supplemented with 1% Non-Essential Amino Acids (NEAA, Life Technologies), 1% Insulin-Transferrin-Selenium (ITS, Life Technologies), 1% penicillin and streptomycin (Life Technologies), L-Ascorbic Acid (AA; 200 nM, Wako) and cAMP (50 nM, Sigma-Aldrich). Next, spheroids (either hSpS or hCS) were placed on the inserts containing 3D hSkM and arranged so that they were in contact with one another and were allowed to interact.
# (§3) Glutamate uncaging and optogenetic stimulation. Intact assembloids were imaged under environmentally controlled conditions (37° C., 5% CO2) using a 5× objective in a confocal microscope (Leica SP8). Assembloids, still in transwells, were incubated in the environmentally controlled chamber for 20-30 minutes before imaging. […] At a frame rate of 14.7 frames/sec, a typical stimulation experiment consisted of 500 frames acquired during pre-stimulation, 5 frames of UV stimulation (in specified region of interest, ROI) and 200 frames acquired during poststimulation. […]
# hCS-hSkM assembloid = settings: hCS assembled with hSkM, no hSpS
# Experimental: as §2, §3
# [5] = system: hCS-hSpS-hSkM assembloids; experiment: Glutamate uncaging in hCS-hSpS-hSkM assembloids, muscle contraction; assay type: cell-based, human
# Experimental: as §2
# Glutamate uncaging and optogenetic stimulation. Intact assembloids were imaged under environmentally controlled conditions (37° C., 5% CO2) using a 5× objective in a confocal microscope (Leica SP8). Assembloids, still in transwells, were incubated in the environmentally controlled chamber for 20-30 minutes before imaging. […] At a frame rate of 14.7 frames/sec, a typical stimulation experiment consisted of 500 frames acquired during pre-stimulation, 5 frames of UV stimulation (in specified region of interest, ROI) and 200 frames acquired during poststimulation. For optogenetic stimulation, five pulses of light (625 nm, 68 ms in duration each and ˜68 seconds apart) were delivered using an optical fiber-coupled LED (400 μmdiameter, 13.2 mW; Thorlabs) that was directed towards the hCS.
# hSpS [6] = experiment: Combinatorial growth factor matrix, gene expression of 16 markers at day 20; assay type: cell-based, human
# From the text: To establish hSpS differentiation conditions, we designed a combinatorial approach, where we used FGF-2, RA, and WNT and SHH modulators at varying concentrations following neural ectoderm specification of early spheroids. […] Briefly, hiPS cell colonies were lifted from plates using the enzyme dispase, moved to ultra-low attachment plates to form spheroids and exposed to dual SMAD inhibition as we have previously described. Starting on day 4 of in vitro differentiation, neural spheroids were exposed to 3 μM of the WNT activator CHIR-99021, and to 20 ng/ml EGF from day 6 onward. Neural spheroids also received a combination of RA (0.01 or 0.1 μM) and FGF-2 (0, 10 or 20 ng/ml) from day 6, and the SHH activator smoothened agonist (SAG; 0, 0.01, 0.1 or 1 μM) from day 11.
# For the combinatorial growth factor matrix, small molecules were added on the same days as described above, and the concentrations for dual SMAD inhibitors, CHIR 99021 and EGF were the same as above. From day 7, the neural medium was changed every other day until day 20, when spheres were collected. No DAPT was added for this experiment.
# Real-time quantitative PCR (qPCR). For qPCR analysis of spheroids, at least 2-3 spheroids were pooled per sample. mRNA was isolated using the RNeasy Mini kit and RNase-Free DNase set (Qiagen), and template cDNA was prepared by reverse transcription using the SuperScript Ill First-Strand Synthesis SuperMix for qRT-PCR (Life Technologies). qPCR was performed using Sybr Green (Roche) on a ViiA7 machine (Applied Biosystems, Life Technologies).
# hCS-hSC-hSkM assembloid = experiment: Glutamate uncaging in hCS-hSC-hSkM assembled spheroids (Example 1), hSkM contraction; settings: tubocurarine 100 μM
# From the text: For cortico-spinal-muscle assembled spheroids, hCS-hSC assembled spheroids were placed on tissue culture inserts and positioned so that hSC was in contact with the 3D hSkM constructs. Media was changed every other day.
# The FRAP module of the Leica SP8 confocal microscope was used to uncage glutamate using UV light.
# [7] = system: hSpS-limb assembloids (mouse limb buds); experiment: Contraction of hSpS-limb assembloids; assay type: cell-based; settings: curare 100 μM; 14 days after fusion
# Experimental: Co-culture of mouse limb and spheroids. For mouse co-culture experiments, timed-pregnant females were sacrificed at E11.5, embryos were collected, and limb buds dissected (both forelimbs and hindlimbs were used for this experiment). Limbs and spheroids (at D25) were then assembled together by placing them in close proximity in a 1.5 ml microcentrifuge tube for 3 days in an incubator. One limb and one spheroid were placed per tube. On day 2 medium was carefully changed. Neural medium supplemented with N−2 supplement (Life Technologies, 17502048) was used. After assembly, mouse-spheroid cultures were placed in 24-well ultralow-attachment plates (Corning), and medium was changed every other day. For contraction quantification, assembloids were visualized using brightfield illumination in an EVOS FL Cell Imaging System (Life Technologies), and they were deemed to be contracting if they moved within a time-window of 30 seconds. Approval for mouse experiments was obtained from the Stanford University's Administrative Panel on Laboratory Animal Care (APLAC).
# hSkM = hSkM calcium imaging (Cal-590 AM) in 2D co-culture with hSpS; assay type: cell-based, human; settings: curare 100 μM; 2D hSkM co-cultured with hSpS; 2-minute period
# Experimental: hSkM calcium imaging. For calcium imaging co-culture experiments, hSkM were plated on 24-well plates as described above and differentiated with Skeletal Muscle Cell Differentiation Medium. After 6-7 days of exposure to differentiation medium, hSkM were co-cultured with hSpS or hCS. […] One hSpS or hCS were placed per well. hSkM-spheroid co-cultures were left undisturbed for two days, and half medium was carefully replaced every other day thereafter. Calcium imaging was performed after 6-7 days of co-culture. Cultures were incubated with Cal-590 AM (10 μM, AAT Bioquest) and PowerLoad (1:100, Invitrogen) for 30 minutes at 37° C., washed once for 10 minutes with full medium and then imaged. A Leica SP8 confocal microscope with a resonant scanner was used for imaging. Spontaneous calcium activity was recorded for 2 min (10 frames per second) in 6-9 fields per well, and for each field the distance from the spheroid was measured.
# Calcium imaging. Calcium imaging data was processed using ImageJ (Fiji) and custom MATLAB routines. […] A total number of 798 (hSkM condition), 652 (hCS+hSkM condition), 1006 (hSpS+hSkM condition) and 727 (hSpS+hSkM+curare condition) hSkM fibers were analyzed. Following ROI registration, raw time-series movies were transformed to relative changes in fluorescence: dF/F(t)=(F(t)−F0)/F0, where F0 represented the 5th percentile value of the time series of each ROI. […]
molecule,measurement,setting,value
N[C@@H](CCCP(=O)(O)O)C(=O)O [APV],Light induced responses (muscle displacement/contraction) upon hCS optogenetic stimulation,[1],completely abolished
C[C@H](NC(=O)Cc1cc(F)cc(F)c1)C(=O)N[C@H](C(=O)OC(C)(C)C)c1ccccc1 [DAPT],Increase in the proportion of motor neurons,hSpS [2],approximately three-fold
same,Cytoarchitecture of hSC (position of cell bodies and axons),hSC [3],"cell bodies were found on the inside of the spheroid, while axons were found on the outside of hSC"
same,"Expression of some interneuron markers (GATA3, EN1, EVX1)",hSC [4],lower expression
same,Expression of the MN markers ISL1 and HB9,hSC [4],higher expression
"COc1ccc([N+](=O)[O-])c2c1CCN2C(=O)CC[C@H](N)C(=O)O [MNI-caged glutamate, MNI-caged-L-glutamate]",hSkM contraction upon photostimulation of hSpS,hSpS-hSkM assembloids,resulted in hSkM contraction
same,Response to glutamate uncaging of hCS,hCS-hSkM assembloid,did not elicit a response
same,Muscle contraction upon uncaging in hCS,[5]; 405 nm uncaging on hCS,robust muscle contraction
same,hSkM contraction upon stimulation of hSpS,[5]; 405 nm uncaging on hSpS,coupled with hSkM contraction
CNC1CCC(N(Cc2cccc(-c3ccncc3)c2)C(=O)c2sc3ccccc3c2Cl)CC1 (centres unmarked) [SAG],"Expression of ventral progenitor marker genes OLIG2, NKX6-1, FOXA2 and post-mitotic markers CHX10 and ISL1",hSpS [6]; high SAG exposure,higher expression
"COc1cc2c3cc1Oc1cc(ccc1O)C[C@@H]1c4c(cc(OC)c(O)c4Oc4ccc(cc4)C[C@@H]3N(C)CC2)CC[N+]1(C)C [curare, (+)-tubocurarine chloride pentahydrate]",hSkM contraction after glutamate uncaging on hSC,hCS-hSC-hSkM assembloid,blocked
same,Contraction activity in hSpS-limb assembloids,[7],completely blocked
same,Muscle contraction upon glutamate uncaging in hCS,[5]; 100 μm curare,blocked; also recorded: stops
same,Increase in proportion of active hSkM (spontaneous calcium activity) in hSpS-hSkM,hSkM,blocked
FGF-2: growth factor FGF-2 (R&D Systems),Rostro-caudal fate (HOXA2 expression pattern),hSpS [6]; high levels of RA and low levels of FGF-2,more rostral fates
same,Rostro-caudal fate (HOXC9 expression),hSpS [6]; low levels of RA and high levels of FGF-2,more caudal fates
NBQX,Light induced responses (muscle displacement/contraction) upon hCS optogenetic stimulation,[1],completely abolished

# Source: patent US12110510B2, “Functional cortico-spinal-muscle assembled spheroids” (The Board of Trustees of the Leland Stanford Junior …, priority 2018, dated 2024)
